We go through 25 molecules from patent US9981916B2 (Genentech, Inc., priority 2013, dated 2018).

For this assay, the target named is T1, RORc ligand binding domain (Homo sapiens, UniProt P51449).
T1 construct: host or cells: E. coli
T1 sequence (P51449 269-508 limits assumed): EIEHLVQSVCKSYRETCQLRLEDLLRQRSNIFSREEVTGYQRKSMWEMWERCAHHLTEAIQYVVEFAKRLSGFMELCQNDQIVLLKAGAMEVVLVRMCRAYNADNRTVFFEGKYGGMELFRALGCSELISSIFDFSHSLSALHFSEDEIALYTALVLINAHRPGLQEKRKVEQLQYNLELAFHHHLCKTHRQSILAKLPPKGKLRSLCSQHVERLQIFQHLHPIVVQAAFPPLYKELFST
Kind of assay: In vitro RORc ligand binding assay (25-[3H]hydroxycholesterol displacement, filter binding). The following applies: 6 nM 25-[3H]hydroxycholesterol, 0.6 ug/mL RORc receptor, 3 h at 25° C. The procedure: Example 17: In Vitro RORc Ligand Binding Assay
This assay was used to determine a compound's potency in inhibiting activity of RORc by determining, Kiapp, IC50, or percent inhibition values.
On day of the assay, 100 uL of 0.05% CHAPS (in deionized H2O) was added to all wells of the GFB Unifilter plate and allowed soak for 1 h. A wash buffer of 50 mM HEPES (pH 7.4), 150 mM NaCl, and 5 mM MgCl2 was prepared to wash the filter plate. To prepare an assay buffer, BSA was added to the wash buffer to reach 0.01% and DTT was added to reach 1 mM.
For IC50 mode, 10 mM compound stocks were serially diluted in DMSO with DMSO to give 20× required final concentration in DMSO (15 uL compound+30 uL DMSO). The 20× compound stocks were diluted in DMSO with Assay Buffer 4-fold to reach 5× the final test concentration in 25% DMSO (10 uL compound+30 uL Assay Buffer). Solutions were mixed by aspiration several times with a pipette set on 50 uL volume. For the assay, 10 uL of 5× compound stock solutions in 25% DMSO were added to the assay plate in duplicate.
For two point screening, 10 mM stock compound solutions were diluted in DMSO to obtain 200 uM (20× the high test concentration) and then diluted 10-fold further to reach 20 uM (20× the low test concentration). The 20× stocks were diluted 4-fold with Assay Buffer (10 uL compound+30 uL Assay Buffer) to reach 5× the test concentrations (50 uM and 5 uM) and 10 uL were added to two assay plates for the duplicate wells. With each concentration tested on 2 plates, each set of 80 compounds used 4 assay plates (1 uM and 10 uM, with n=2).
25-hydroxycholesterol (1 uM) was used to determine the level of NSB signal is prepared in DMSO as for compounds above, then diluted in Assay Buffer to give a final concentration of 5 uM. For 25-hydroxycholesterol in 25% DMSO/75% Assay Buffer; 10 uL per well was used for NSB samples. Wells for Total Binding and No Receptor sample determination contained 10 uL of 25% DMSO/75% Assay Buffer per well.
25-[^3H]hydroxycholesterol was diluted in Assay Buffer to obtain 15 nM and vortex to mix. Add 20 uL to all wells to reach 6 nM final concentration in the assay.
Stock receptor solution was diluted in assay buffer to obtain 1.5 ug/mL in Assay Buffer. 20 uL was added to all wells. For No Receptor samples, 20 uL Assay Buffer was substituted for receptor solution.
Assay plates were 96-well polypropylene V-bottom plates. 10 uL of 5× compound in 25% DMSO/75% Assay Buffer was added to Test wells. 10 uL of 25% DMSO/75% Assay Buffer was added to Total Binding or No Receptor wells. 10 uL of 5 uM 25-hydroxycholesterol in 25% DMSO/75% Assay Buffer was added to NSB wells. 20 uL of 15 nM 25-[^3H]hydroxycholesterol prepared in Assay Buffer was added to all wells. 20 uL of 1.5 ug/mL RORc receptor was added to wells (or […] Assay Buffer to No R wells). Following addition to the wells, the plates were incubated 3 h at 25° C.
Using a Packard Filtermate Harvester, the filter plate were washed 4 times following transfer of the incubated samples. Plates were dry-filtered completely (2 h at 50° C. or overnight at room temperature). 50 uL Microscint 0 was added to all wells and read on Topcount protocol Inverted.
Final concentrations were as follows: 50 mM HEPES buffer (pH 7.4); 150 mM NaCl; 1 mM DTT; 5 mM MgCl2; 0.01% BSA; 5% DMSO; 0.6 ug/mL RORc receptor; 6 nM 25-[^3H]hydroxycholesterol. For NSB wells, 1 uM 25-hydroxycholesterol was also present.
On to `CC(=O)OCC1(C)[C@@H]2CC[C@@]1(C)c1nnc(-c3ccccc3F)cc12` (stereo partly shown), for which the IC50 (as a rule, the concentration that gives 50% inhibition) is 2460 nM. `CC1(C)[C@H]2CC[C@]1(Cc1nnc(CO)o1)c1nnc(-c3c(F)cccc3F)cc12` (stereo in doubt) [Example 76, (5-{[(5R,8R)-3-(2,6-difluorophenyl)-9,9-dimethyl-6,7-dihydro-5,8-methanocinnolin-8(5H)-yl]methyl}-1,3,4-oxadiazol-2-yl)methanol]: the IC50 was determined as 388 nM.

`CC1(C)[C@H]2CC[C@]1(C(=O)Nc1ccc(C#N)nc1)c1nnc(-c3ccccc3F)cc12` (stereo in doubt) [Example 169, (5R,8R)-N-(6-cyanopyridin-3-yl)-3-(2-fluorophenyl)-9,9-dimethyl-5,6,7,8-tetrahydro-5,8-methanocinnoline-8-carboxamide] showed an IC50 of 3270 nM. In turn, `CC1(C)[C@H]2CC[C@]1(C(=O)N1CCc3cc(S(C)(=O)=O)ccc31)c1nnc(-c3ccccc3F)cc12` (stereo in doubt) [Example 170, ((5R,8R)-3-(2-fluorophenyl)-9,9-dimethyl-5,6,7,8-tetrahydro-5,8-methanocinnolin-8-yl)(5-(methylsulfonyl)indolin-1-yl)methanone] registered an IC50 of 3890 nM. This IC50 and that of the molecule before are within 1.5-fold of each other. To `CC1(C)[C@@H]2CC[C@@]1(C(=O)N1CCCC1CO)c1nnc(-c3c(F)cccc3F)cc12` (stereo in doubt) [Example 215, ((5S,8S)-3-(2,6-difluorophenyl)-9,9-dimethyl-5,6,7,8-tetrahydro-5,8-methanocinnolin-8-yl) ((R)-2-(hydroxymethyl)pyrrolidin-1-yl)methanone] belongs 1130 nM; to `CC1(C)C2CCC1(C(=O)N1CC(N3CC[C@H](F)C3)C1)c1nnc(-c3c(F)cccc3F)cc12` (stereo in doubt) [Example 248, ((5S,8S)-3-(2,6-difluorophenyl)-9,9-dimethyl-5,6,7,8-tetrahydro-5,8-methanocinnolin-8-yl)(3-((S)-3-fluoropyrrolidin-1-yl)azetidin-1-yl) methanone], 387 nM; to `CC1(C)[C@H]2CC[C@]1(C)c1nnc(-c3c(F)cccc3F)cc12` [Example 1, (5R,8S)-3-(2,6-Difluorophenyl)-8,9,9-trimethyl-5,6,7,8-tetrahydro-5,8-methanocinnoline], 114 nM. The molecule `CC(=O)OC[C@]12CC[C@H](c3cc(-c4ccccc4F)nnc31)C2(C)C` [Example 12] showed an IC50 of 45 nM.

On to `CC1(C)[C@@H]2CC[C@@]1(CC#N)c1nnc(-c3ccccc3F)cc12` [Example 16], for which the IC50 came out at 1550 nM. In turn, `CC1(C)[C@@H]2CC[C@@]1(Cn1ccnc1)c1nnc(-c3ccccc3F)cc12` [Example 17, (5S,8R)-3-(2-fluorophenyl)-8-(1H-imidazol-1-ylmethyl)-9,9-dimethyl-5,6,7,8-tetrahydro-5,8-methanocinnoline] showed an IC50 of 3170 nM. Then `CC1(C)[C@@H]2CC[C@@]1(CN1CCCC1=O)c1nnc(-c3ccccc3F)cc12` [Example 18, 1-{[(5S,8R)-3-(2-fluorophenyl)-9,9-dimethyl-6,7-dihydro-5,8-methanocinnolin-8(5H)-yl]methyl}pyrrolidin-2-one], with 4810 nM; and `CC(=O)O[C@H]1C[C@@H]2c3cc(-c4ccccc4F)nnc3[C@@]1(C)C2(C)C` [Example 19, (5S,7S,8R)-3-(2-fluorophenyl)-8,9,9-trimethyl-5,6,7,8-tetrahydro-5,8-methanocinnolin-7-yl acetate], with 683 nM. As to `CC(=O)O[C@@H]1C[C@H]2c3cc(-c4ccccc4F)nnc3[C@]1(C)C2(C)C` [Example 20, (5R,7R,8S)-3-(2-fluorophenyl)-8,9,9-trimethyl-5,6,7,8-tetrahydro-5,8-methanocinnolin-7-yl acetate], the 50% inhibitory concentration (IC50) was 1200 nM. To `CC1(C)[C@@H]2CC[C@@]1(COCc1ccccc1)c1nnc(-c3c(F)cccc3Cl)cc12` [Example 21, (5S,8S)-8-[(benzyloxy)methyl]-3-(2-chloro-6-fluorohenyl)-9,9-dimethyl-5,6,7,8-tetrahydro-5,8-methanocinnoline] belongs 22 nM; to `CC(=O)OC[C@]12CC[C@H](c3cc(-c4c(F)cccc4Cl)nnc31)C2(C)C` [Example 22, [(5S,8S)-3-(2-chloro-6-fluorophenyl)-9,9-dimethyl-6,7-dihydro-5,8-methanocinnolin-8(5H)-yl]methyl acetate], 15 nM. `CC1(C)[C@@H]2CC[C@@]1(CO)c1nnc(-c3c(F)cccc3Cl)cc12` [Example 23, [(5S,8S)-3-(2-chloro-6-fluorophenyl)-9,9-dimethyl-6,7-dihydro-5,8-methanocinnolin-8(5H)-yl]methanol] gave a 50% inhibitory concentration (IC50) of 381 nM. `COC[C@]12CC[C@H](c3cc(-c4c(F)cccc4Cl)nnc31)C2(C)C` [Example 24, (5S,8S)-3-(2-chloro-6-fluorophenyl)-8-(methoxymethyl)-9,9-dimethyl-5,6,7,8-tetrahydro-5,8-methanocinnoline] gave a 50% inhibitory concentration (IC50) of 45 nM. Compared with the last molecule, the IC50 is about 8.5-fold lower. `CCOC[C@]12CC[C@H](c3cc(-c4ccccc4F)nnc31)C2(C)C` [Example 25, (5S,8S)-8-(ethoxymethyl)-3-(2-fluorophenyl)-9,9-dimethyl-5,6,7,8-tetrahydro-5,8-methanocinnoline] came in with an IC50 of 139 nM. Against the preceding molecule, the IC50 is about 3.1-fold higher. For `COCCOC[C@]12CC[C@H](c3cc(-c4ccccc4F)nnc31)C2(C)C` [Example 26, (5S,8S)-3-(2-fluorophenyl)-8-[(2-methoxyethoxy)methyl]-9,9-dimethyl-5,6,7,8-tetrahydro-5,8-methanocinnoline], the IC50 turned out to be 789 nM. On to `CC1(C)[C@@H]2CC[C@@]1(Cn1cccn1)c1nnc(-c3ccccc3F)cc12` [Example 27, (5S,8R)-3-(2-fluorophenyl)-9,9-dimethyl-8-(1H-pyrazol-1-ylmethyl)-5,6,7,8-tetrahydro-5,8-methanocinnoline], for which the half-maximal inhibitory concentration (IC50) amounted to 366 nM. Then `COC[C@@]12CC[C@@H](c3cc(-c4ccccc4F)nnc31)C2(C)C` [Example 28, (5R,8R)-3-(2-fluorophenyl)-8-(methoxymethyl)-9,9-dimethyl-5,6,7,8-tetrahydro-5,8-methanocinnoline], with 210 nM. Then `COC[C@@]12CC[C@@H](c3cc(-c4c(F)cccc4Cl)nnc31)C2(C)C` [Example 29, (5R,8R)-3-(2-chloro-6-fluorophenyl)-8-(methoxymethyl)-9,9-dimethyl-5,6,7,8-tetrahydro-5,8-methanocinnoline], with 41 nM. To `COC[C@@]12CC[C@@H](c3cc(-c4c(F)cccc4F)nnc31)C2(C)C` [Example 30, (5R,8R)-3-(2,6-difluorophenyl)-8-(methoxymethyl)-9,9-dimethyl-5,6,7,8-tetrahydro-5,8-methanocinnoline] belongs 45 nM; to `CC1(C)[C@H]2C[C@@H](F)[C@]1(C)c1nnc(-c3ccccc3F)cc12` [Example 31, (5R,7R,8S)-7-fluoro-3-(2-fluorophenyl)-8,9,9-trimethyl-5,6,7,8-tetrahydro-5,8-methanocinnoline], 2130 nM; to `CC1(C)[C@@H]2C[C@H](F)[C@@]1(C)c1nnc(-c3ccccc3F)cc12` [Example 32, (5S,7S,8R)-7-fluoro-3-(2-fluorophenyl)-8,9,9-trimethyl-5,6,7,8-tetrahydro-5,8-methanocinnoline], 969 nM.
